Data on 33 compounds can be found in patent US5496805A, “Inhibitors of neutral endopeptidase” (priority 1990, dated 1996).

Counter-ions that a name gives are not always drawn. Square brackets hold non-standard residues; d marks the D form. Peptide text beside a SMILES is read from it. Mpa = O=C(O)CCS

The experiment has as its target T1, neutral endopeptidase (Rattus norvegicus, UniProt P07861).
T1 sequence (P07861 1-750): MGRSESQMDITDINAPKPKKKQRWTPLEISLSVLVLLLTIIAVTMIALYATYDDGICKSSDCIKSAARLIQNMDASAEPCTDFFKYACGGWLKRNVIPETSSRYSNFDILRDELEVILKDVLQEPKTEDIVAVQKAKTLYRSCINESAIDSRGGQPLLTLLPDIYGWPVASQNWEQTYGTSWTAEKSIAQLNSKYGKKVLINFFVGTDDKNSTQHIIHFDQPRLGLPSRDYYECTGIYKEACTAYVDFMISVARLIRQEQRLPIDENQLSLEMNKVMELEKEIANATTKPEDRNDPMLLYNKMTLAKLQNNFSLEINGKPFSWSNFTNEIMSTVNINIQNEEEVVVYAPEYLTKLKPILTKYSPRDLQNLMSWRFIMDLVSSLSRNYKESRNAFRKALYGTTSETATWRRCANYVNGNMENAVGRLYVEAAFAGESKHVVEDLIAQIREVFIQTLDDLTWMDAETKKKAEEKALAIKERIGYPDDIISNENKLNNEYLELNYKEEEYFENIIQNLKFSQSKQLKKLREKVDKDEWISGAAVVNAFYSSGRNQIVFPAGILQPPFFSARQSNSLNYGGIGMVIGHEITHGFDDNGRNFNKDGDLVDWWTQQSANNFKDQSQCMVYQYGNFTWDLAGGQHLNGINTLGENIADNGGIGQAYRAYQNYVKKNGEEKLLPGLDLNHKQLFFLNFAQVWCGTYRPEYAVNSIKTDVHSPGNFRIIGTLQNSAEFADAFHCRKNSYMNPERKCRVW
The experiment can be described thus: biochemical. To be noted: enzyme purified from rat kidney; Dns-Gly-Phe-Arg 0.5 mM; pH 7.5; 37°, 30 minutes; inhibitor preincubated 10 minutes. How it is done: The in vitro neutral endopeptidase activity is determined using a fluorometric assay procedure. The assay is based upon the cleavage of the fluorescent dansylated tripeptide Dns-Gly-Phe-Arg to form Dns-Gly. The latter is extracted from the acidified mixture by ethyl acetate and is strongly fluorescent.
The incubation mixture employed for the assay contains the substance Dns-Gly-Phe-Arg (0.5 mM), tris(hydroxymethyl)aminomethane -HCl buffer (pH 7.5, 50 mM), an enzyme preparation in 0.05% Triton X-100, and water or inhibitor diluted to a final volume of 0.25 ml. The enzyme preparation is purified from rat kidney according to the procedure described by Almenoff et al. in Biochemistry Vol. 22, p. 590-599 (1983). The inhibitor is preincubated for 10 minutes with the enzyme preparation and buffer before the reaction is initiated by the addition of the substrate. Incubation is carried out at 37° for 30 minutes and the reaction is stopped by the addition of 0.25 ml. 1N HCl and extraction of the Dns-Gly product into 1.5 ml. of ethyl acetate. Relative fluorescent intensity (RFI) of the ethyl acetate extract is measured using a Ferrand Spectofluorometer at excitation and emission wavelengths of 342 and 508 nm., respectively, corrected for the RFI of a zero-time control, and compared with assays lacking inhibitor.
Runs are made at different concentrations of test compound and by use of a mathematical model the IC50 is determined. The IC50 is the concentration of test compound that inhibits activity of the enzyme by 50%.
By IC50 is commonly meant the point on the concentration scale where inhibition reaches its midpoint. In the case of `CSCC[C@H](NC(=O)C(C)CS)C(=O)O` (mixture of isomers) [Example 23, (±)-N-(3-Mercapto-2-methyl-1-oxopropyl)-L-methionine, 1,1-dimethylethanamine salt (1:1)], half-maximal inhibition (IC50) required 49 nM.

Regarding `O=C(O)CCCCCCCCCCNC(=O)C(CS)Cc1ccccc1` (racemic) [Example 53, (±)-11-[[2-(Mercaptomethyl)-1-oxo-3-phenylpropyl]amino]undecanoic acid], 76 nM corresponded to half-maximal inhibition (IC50).

On to `O=C(CCS)N[C@@H](Cc1ccccc1)C(=O)N[C@@H](Cc1ccccc1)C(=O)O` [Example 62, N-[N-(3-Mercapto-1-oxopropyl)-L-phenylalanyl]-L-phenylalanine] ([Mpa]-Phe-Phe-OH), for which the midpoint of inhibition, the IC50, lay at 740 nM.

As for `CC(C)CC(CS)C(=O)N[C@@H](CC(C)C)C(=O)O` (mixture of isomers) [Example 34, (±)-N-[2-(Mercaptomethyl)-4-methyl-1-oxopentyl]-L-leucine], the midpoint of inhibition, the IC50, lay at 12 nM.

For the compound `CC(CS)C(=O)N[C@@H](CCCNC(=N)N)C(=O)O` (mixture of isomers) [Example 3, N-(DL-3-Mercapto-2-methyl-1-oxopropyl)-L-arginine], the concentration for half-maximal inhibition (IC50) is 720 nM.

In turn, `CC(CS)C(=O)N[C@@H](CCC(=O)O)C(=O)O` (mixture of isomers) [Example 19, (±)-N-(3-Mercapto-2-methyl-1-oxopropyl)-L-glutamic acid, 1,1-dimethylethanamine salt (1:2)] had a concentration for half-maximal inhibition (IC50) of 110 nM.

As for `CC(CS)C(=O)N[C@@H](Cc1ccccc1)C(=O)O` (mixture of isomers) [Example 17, (±)-N-(3-Mercapto-2-methyl-1-oxopropyl)-L-phenylalanine, 1,1-dimethylethanamine salt (1:1)], 14 nM corresponded to half-maximal inhibition (IC50).

On to `N=C(N)NCCC[C@H](NC(=O)CNC(=O)C(CS)Cc1ccccc1)C(=O)O` (stereo partly drawn) [Example 82, N-[N-[2-(Mercaptomethyl)-1-oxo-3-phenylpropyl]glycyl]-L-arginine], for which half-maximal inhibition (IC50) required 15 nM.

The compound `O=C(CS)N[C@@H](Cc1ccccc1)C(=O)N[C@@H](Cc1ccccc1)C(=O)O` [Example 61, N-[N-(Mercaptoacetyl)-L-phenylalanyl]-L-phenylalanine] registered an IC50 of 120 nM.

`O=C(N[C@@H](Cc1ccc(O)c(O)c1)C(=O)O)C(CS)Cc1ccccc1` (mixture of isomers) [Example 24, (±)-3-Hydroxy-N-[2-(mercaptomethyl)-1-oxo-3-phenylpropyl]-L-tyrosine, 1,1-dimethylethanamine salt (1:1)] yielded an IC50 of 47 nM. This IC50 is about 2.6-fold lower than that of the compound before.

As to `CSCC[C@H](NC(=O)C(CS)Cc1ccccc1)C(=O)O` (mixture of isomers) [Example 22, (±)-N-[2-(Mercaptomethyl)-1-oxo-3-phenylpropyl]-L -methionine], the 50% inhibitory concentration (IC50) was determined as 6.7 nM.

Compound `O=C(O)CCCCCNC(=O)C(CS)Cc1ccccc1` (racemic) [Example 50, (±)-6-[[2-(Mercaptomethyl)-1-oxo-3-phenylpropyl]amino]hexanoic acid] gave a concentration for half-maximal inhibition (IC50) of 59 nM. Compared with the last compound, the IC50 is about 8.8-fold higher.

As for `CC(C)C[C@H](NC(=O)[C@H](Cc1ccccc1)NC(=O)[C@@H]1CCCC[C@H]1S)C(=O)O` (single isomer, unassigned; isomer a) [Example 68, (trans)-N-[N-[(2-Mercaptocyclohexyl)carbonyl]-L-phenylalanyl]-L-leucine (isomer A)], half-maximal inhibition (IC50) was put at 1200 nM.

On to `CC(CS)C(=O)NCC(=O)O` (racemic) [Example 16, (±)-N-(3-Mercapto-2-methyl-1-oxopropyl)glycine], for which the IC50 was found to be 370 nM.

On to `CC(C)CC(CS)C(=O)N[C@@H](C)C(=O)O` (single isomer, unassigned; isomer a) [Example 12, N-[2-(Mercaptomethyl)-4-methyl-1-oxopentyl]-L-alanine (isomer A)], for which inhibition was half-maximal at 3.3 nM (IC50).

Compound `O=C(NCCCC[C@H](NC(=O)C(CS)Cc1ccccc1)C(=O)O)OCc1ccccc1` (mixture of isomers) [Example 26, (±)-N^2-[2-(Mercaptomethyl)-1-oxo-3-phenylpropyl]-N^6-[(phenylmethoxy)carbonyl]-L-lysine, N-cyclohexylcyclohexanamine salt (1:1)] returned an IC50 of 32 nM. This IC50 lies about 9.7-fold higher than the previous one.

`CCCC[C@H](NC(=O)C(CS)Cc1ccccc1)C(=O)O` (single isomer, unassigned; isomer b) [Example 30, N-[2,(Mercaptomethyl)-1-oxo,3-phenylpropyl]-L-norleucine (isomer B)] gave a half-inhibitory concentration (IC50) of 20 nM.

Compound `O=C(CCS)N[C@@H](Cc1ccccc1)C(=O)O` [Example 2, N-(3-Mercapto-1-oxopropyl)-L-phenylalanine] registered a 50% inhibitory concentration (IC50) of 380 nM. Against the preceding compound, the IC50 is about 19-fold higher.

Compound `CC(C)CC(CS)C(=O)N[C@@H](C)C(=O)O` (single isomer, unassigned; isomer b) [Example 13, N-[2-(Mercaptomethyl)-4-methyl-1-oxopentyl]-L-alanine (isomer B)] showed an IC50 of 2.2 nM.

`C[C@H](CS)C(=O)N[C@@H](Cc1ccc(O)c(O)c1)C(=O)O` [Example 14, 3-Hydroxy-N-(D-3-mercapto-2-methyl-1-oxopropyl)-L-tyrosine] came in with a 50% inhibitory concentration (IC50) of 91 nM.

Turning to `CC(C)CC(CS)C(=O)N[C@@H](Cc1ccccc1)C(=O)O` (mixture of isomers) [Example 33, (±)-N-[2-(Mercaptomethyl)-4-methyl-1-oxopentyl]-L-phenylalanine], the midpoint of inhibition, the IC50, lay at 9 nM.

As to `CC(CS)C(=O)N[C@@H](Cc1ccc(O)cc1)C(=O)O` (mixture of isomers) [Example 6, N-(DL-3-Mercapto-2,methyl1-oxopropyl)-L-tyrosine], inhibition was half-maximal at 13 nM (IC50).

For `O=C(O)CC(=O)NC(CS)Cc1ccccc1` (stereo not drawn) [Example 69, 3-[[1-(Mercaptomethyl)-2-phenylethyl]amino]-3-oxo-propanoic acid], half-maximal inhibition (IC50) was put at 12 nM.

`O=C(N[C@@H](Cc1ccccc1)C(=O)O)C(CS)Cc1ccccc1` (single isomer, unassigned; isomer a) [Example 31, N-[2,(Mercaptomethyl)-1-oxo-3-phenylpropyl]-L-phenylalanine (isomer A)] gave a 50% inhibitory concentration (IC50) of 5.3 nM. Against the preceding compound, the IC50 is about 2.3-fold lower.

On to `CC(CS)C(=O)N[C@@H](CO)C(=O)O` (mixture of isomers) [Example 21, (±)-N-(3-Mercapto-2-methyl-1-oxopropyl)-L-serine, N-cyclohexylcyclohexamine salt(1:1)], for which half-maximal inhibition (IC50) required 280 nM.

The compound `C[C@H](CS)C(=O)N[C@@H](CC(=O)O)C(=O)O` [Example 42, (S)-N-(3-Mercapto-2-methyl-1-oxopropyl)-L-aspartic acid] came in with a half-maximal inhibitory concentration (IC50) of 36 nM.

As for `CC(C)C[C@H](NC(=O)C(C)CS)C(=O)O` (mixture of isomers) [Example 18, (±)-N-(3-Mercapto-2-methyl-1-oxopropyl)-L-leucine, 1,1-dimethylethanamine salt (1:1)], 69 nM corresponded to half-maximal inhibition (IC50).

`C[C@H](CS)C(=O)N[C@@H](CC(N)=O)C(=O)O` [Example 44, (S)-N^2-(3-Mercapto-2-methyl-1-oxopropyl)-L-asparagine] had a 50% inhibitory concentration (IC50) of 220 nM.

Regarding `O=C(O)CCCCNC(=O)C(CS)Cc1ccccc1` (racemic) [Example 49, (±)-5-[[2-(Mercaptomethyl)-1-oxo-3-phenylpropyl]amino]pentanoic acid], 22 nM corresponded to half-maximal inhibition (IC50).

`CC(C)C[C@H](NC(=O)C(Cc1ccccc1)CP(C)(=O)O)C(=O)O` (stereo partly drawn) [Example 74, N-[2-[(hydroxymethylphosphinyl)methyl]-1-oxo-3-phenylpropyl]-L-leucine, dilithium salt] yielded an IC50 of 950 nM.

Take `CC(C)CC(CS)C(=O)NCC(=O)O` (racemic) [Example 8, (±)-N-[2-(Mercaptomethyl)-4-methyl-1-oxopentyl]-glycine]: the half-inhibitory concentration (IC50) turned out to be 280 nM.

As for `CC(C)CC(CS)C(=O)N[C@@H](C)C(=O)N[C@@H](CCCN=C(N)N)C(=O)O` (single isomer, unassigned; isomer a) [Example 56, N-[N-[2-(Mercaptomethyl)-4-methyl-1-oxopentyl]-L-alanyl]-L-arginine (isomer A)], the IC50 turned out to be 23 nM.

`C[C@H](NC(=O)[C@H](S)Cc1ccccc1)C(=O)N1CCC[C@H]1C(=O)O` [Example 65]: half-maximal inhibition (IC50) required 62 nM. Against the preceding compound, the IC50 is about 2.7-fold higher.
